What was measured:
HCV replicon genotype 1a = experiment: microbe, parasite or virus in culture; format: cell-based; settings: Hepatitis C virus, 96 h, genotype 1a replicon cells, incubated 96 hours, NS3/4A ELISA readout
HCV replicon genotype 1b = experiment: microbe, parasite or virus in culture; format: cell-based; settings: Hepatitis C virus, 96 h, genotype 1b replicon cells, incubated 96 hours, NS3/4A ELISA readout

With `CN(c1cc2oc(-c3ccc(F)cc3)c(C(=O)NC3CC3)c2cc1-c1ccc2c(n1)-c1cc3c(F)cccc3n1CO2)S(C)(=O)=O` [Compound 157] the IC50 (HCV replicon genotype 1a) was 7.6 nM and the IC50 (HCV replicon genotype 1b) was 11 nM.

With `CC(C)NC(=O)c1c(-c2ccc(F)cc2)oc2cc(N(C)S(C)(=O)=O)c(-c3ccc4c(n3)-c3cc5c(F)cccc5n3CO4)cc12` [Compound 158] the IC50 (HCV replicon genotype 1a) was 42 nM and the IC50 (HCV replicon genotype 1b) was 24 nM.

Work on `CN(c1cc2oc(-c3ccc(F)cc3)c(-c3nnco3)c2cc1-c1ccc2c(n1)-c1cc3c(F)cccc3n1CO2)S(C)(=O)=O` [Compound 159, N-(5-(11-fluoro-6H-pyrido[2′,3′:5,6][1,3]oxazino[3,4-a]indol-2-yl)-2-(4-fluorophenyl)-3-(1,3,4-oxadiazol-2-yl)benzofuran-6-yl)-N-methylmethanesulfonamide] yielded an IC50 (HCV replicon genotype 1a) of 11 nM and an IC50 (HCV replicon genotype 1b) of 22 nM.

In the case of `CN(c1cc2oc(-c3ccc(F)cc3)c(-c3ncn[nH]3)c2cc1-c1ccc2c(n1)-c1cc3c(F)cccc3n1CO2)S(C)(=O)=O` [Compound 160, N-(5-(11-fluoro-6H-pyrido[2′,3′:5,6][1,3]oxazino[3,4-a]indol-2-yl)-2-(4-fluorophenyl)-3-(1H-1,2,4-triazol-5-yl)benzofuran-6-yl)-N-methylmethanesulfonamide], the IC50 (HCV replicon genotype 1a) is reported as 19 nM and the IC50 (HCV replicon genotype 1b) is reported as 16 nM.

For `Cc1n[nH]c(-c2c(-c3ccc(F)cc3)oc3cc(N(C)S(C)(=O)=O)c(-c4ccc5c(n4)-c4cc6c(F)cccc6n4CO5)cc23)n1` [Compound 161, N-(5-(11-fluoro-6H-pyrido[2′,3′:5,6][1,3]oxazino[3,4-a]indol-2-yl)-2-(4-fluorophenyl)-3-(3-methyl-1H-1,2,4-triazol-5-yl)benzofuran-6-yl)-N-methylmethanesulfonamide], the IC50 (HCV replicon genotype 1a) was 32 nM and the IC50 (HCV replicon genotype 1b) was 54 nM.

For `CNC(=O)c1c(-c2ccc(F)cc2)oc2ccc(-c3ccc4c(n3)-c3cc5c(F)cccc5n3CO4)cc12` [Compound 162, 5-(11-fluoro-6H-pyrido[2′,3′:5,6][1,3]oxazino[3,4-a]indol-2-yl)-2-(4-fluorophenyl)-N-methylbenzofuran-3-carboxamide], the IC50 (HCV replicon genotype 1a) was 29 nM and the IC50 (HCV replicon genotype 1b) was 18 nM.

In the case of `CNC(=O)c1c(-c2ccc(F)cc2)oc2cc(N)c(-c3ccc4c(n3)-c3cc5c(F)cccc5n3CO4)cc12` [Compound 163, 6-amino-5-(11-fluoro-6H-pyrido[2′,3′:5,6][1,3]oxazino[3,4-a]indol-2-yl)-2-(4-fluorophenyl)-N-methylbenzofuran-3-carboxamide], the IC50 (HCV replicon genotype 1a) is reported as 1.1 nM and the IC50 (HCV replicon genotype 1b) is reported as 2.2 nM.

`CNC(=O)c1c(-c2ccc(F)cc2)oc2cc(-n3cn[nH]c3=O)c(-c3ccc4c(n3)-c3cc5c(F)cccc5n3CO4)cc12` [Compound 164] was tested, and the IC50 (HCV replicon genotype 1a) was 1.7 nM and the IC50 (HCV replicon genotype 1b) was 1 nM.

`CNC(=O)c1c(-c2ccc(F)cc2)oc2cc(-c3ccnn3C)c(-c3ccc4c(n3)-c3cc5c(F)cccc5n3CO4)cc12` [Compound 165, 5-(11-fluoro-6H-pyrido[2′,3′:5,6][1,3]oxazino[3,4-a]indol-2-yl)-2-(4-fluorophenyl)-N-methyl-6-(1-methyl-1H-pyrazol-5-yl)benzofuran-3-carboxamide] showed an IC50 (HCV replicon genotype 1a) of 27 nM and an IC50 (HCV replicon genotype 1b) of 9.7 nM.

`CNC(=O)c1c(-c2ccc(F)cc2)oc2cc(-c3ccsc3)c(-c3ccc4c(n3)-c3cc5c(F)cccc5n3CO4)cc12` [Compound 166] showed an IC50 (HCV replicon genotype 1a) of 69 nM and an IC50 (HCV replicon genotype 1b) of 27 nM.

Work on `CNC(=O)c1c(-c2ccc(F)cc2)oc2cc(-c3ccoc3)c(-c3ccc4c(n3)-c3cc5c(F)cccc5n3CO4)cc12` [Compound 167] yielded an IC50 (HCV replicon genotype 1a) of 21 nM and an IC50 (HCV replicon genotype 1b) of 17 nM.

With `CNC(=O)c1c(-c2ccc(F)cc2)oc2cc(N3CCCC3=O)c(-c3ccc4c(n3)-c3cc5c(F)cccc5n3CO4)cc12` [Compound 168, 5-(11-fluoro-6H-pyrido[2′,3′:5,6][1,3]oxazino[3,4-a]indol-2-yl)-2-(4-fluorophenyl)-N-methyl-6-(2-oxopyrrolidin-1-yl)benzofuran-3-carboxamide] the IC50 (HCV replicon genotype 1a) was 3.3 nM and the IC50 (HCV replicon genotype 1b) was 2.8 nM.

`CNC(=O)c1c(-c2ccc(F)cc2)oc2cc(N3CCCC3=O)c(-c3ccc4c(n3)-c3cc5cc(F)ccc5n3CO4)cc12` [Compound 169] gave an IC50 (HCV replicon genotype 1a) of 14 nM and an IC50 (HCV replicon genotype 1b) of 5 nM.

Work on `CNC(=O)c1c(-c2ccc(F)cc2)oc2cc(N3CCCC3=O)c(-c3ncc4c(n3)-c3cc5c(F)cccc5n3CO4)cc12` [Compound 170] yielded an IC50 (HCV replicon genotype 1a) of 54 nM and an IC50 (HCV replicon genotype 1b) of 13 nM.

Work on `CNC(=O)c1c(-c2ccc(F)cc2)oc2cc(N3CCCC3=O)c(-c3ccc4c(c3)-c3cc5c(F)cccc5n3CO4)cc12` [Compound 171, 5-(11-fluoro-6H-benzo[5,6][1,3]oxazino[3,4-a]indol-2-yl)-2-(4-fluorophenyl)-N-methyl-6-(2-oxopyrrolidin-1-yl)benzofuran-3-carboxamide] yielded an IC50 (HCV replicon genotype 1a) of 12 nM and an IC50 (HCV replicon genotype 1b) of 4.7 nM.

`CNC(=O)c1c(-c2ccc(F)cc2)oc2cc(N3CCOC3=O)c(-c3ccc4c(n3)-c3cc5c(F)cccc5n3CO4)cc12` [Compound 172, 5-(11-fluoro-6H-pyrido[2′,3′:5,6][1,3]oxazino[3,4-a]indol-2-yl)-2-(4-fluorophenyl)-N-methyl-6-(2-oxooxazolidin-3-yl)benzofuran-3-carboxamide] gave an IC50 (HCV replicon genotype 1a) of 2.2 nM and an IC50 (HCV replicon genotype 1b) of 2.1 nM.

`CNC(=O)c1c(-c2ccc(F)cc2)oc2cc(N3CCOC3=O)c(-c3ncc4c(n3)-c3cc5c(F)cccc5n3CO4)cc12` [Compound 173, 5-(11-fluoro-6H-pyrimido[4′,3′:5,6][1,3]oxazino[3,4-a]indol-2-yl)-2-(4-fluorophenyl)-N-methyl-6-(2-oxooxazolidin-3-yl)benzofuran-3-carboxamide] showed an IC50 (HCV replicon genotype 1a) of 8.4 nM and an IC50 (HCV replicon genotype 1b) of 2.1 nM.

Compound `CNC(=O)c1c(-c2ccc(F)cc2)oc2cc(N3CCOC3=O)c(-c3ccc4c(n3)-c3cc5cc(F)ccc5n3CO4)cc12` [Compound 174] has an IC50 (HCV replicon genotype 1a) of 13 nM and an IC50 (HCV replicon genotype 1b) of 4.7 nM.

Work on `CNC(=O)c1c(-c2ccc(F)cc2)oc2cc(N3CCCS3(=O)=O)c(-c3ccc4c(n3)-c3cc5c(F)cccc5n3CO4)cc12` [Compound 175, 6-(1,1-dioxidoisothiazolidin-2-yl)-5-(11-fluoro-6H-pyrido[2′,3′:5,6][1,3]oxazino[3,4-a]indol-2-yl)-2-(4-fluorophenyl)-N-methylbenzofuran-3-carboxamide] yielded an IC50 (HCV replicon genotype 1a) of 5.3 nM and an IC50 (HCV replicon genotype 1b) of 3.1 nM.

`CNC(=O)c1c(-c2ccc(F)cc2)oc2cc(N3CCC3=O)c(-c3ccc4c(n3)-c3cc5c(F)cccc5n3CO4)cc12` [Compound 176] showed an IC50 (HCV replicon genotype 1a) of 7.9 nM and an IC50 (HCV replicon genotype 1b) of 8.8 nM.

Work on `CNC(=O)c1c(-c2ccc(F)cc2)oc2cc(N3CCNC3=O)c(-c3ccc4c(n3)-c3cc5c(F)cccc5n3CO4)cc12` [Compound 177, 5-(11-fluoro-6H-pyrido[2′,3′:5,6][1,3]oxazino[3,4-a]indol-2-yl)-2-(4-fluorophenyl)-N-methyl-6-(2-oxoimidazohdin-1-yl)benzofuran-3-carboxamide] yielded an IC50 (HCV replicon genotype 1a) of 4.6 nM and an IC50 (HCV replicon genotype 1b) of 4 nM.

`CNC(=O)c1c(-c2ccc(F)cc2)oc2cc(N3CCN(C)C3=O)c(-c3ccc4c(n3)-c3cc5c(F)cccc5n3CO4)cc12` [Compound 178, 5-(11-fluoro-6H-pyrido[2′,3′:5,6][1,3]oxazino[3,4-a]indol-2-yl)-2-(4-fluorophenyl)-N-methyl-6-(3-methyl-2-oxoimidazolidin-1-yl)benzofuran-3-carboxamide] gave an IC50 (HCV replicon genotype 1a) of 133 nM and an IC50 (HCV replicon genotype 1b) of 28 nM.

For `CNC(=O)c1c(-c2ccc(F)cc2)oc2cc(N3CC(=O)NC3=O)c(-c3ccc4c(n3)-c3cc5c(F)cccc5n3CO4)cc12` [Compound 179, 6-(2,4-dioxoimidazolidin-1-yl)-5-(11-fluoro-6H-pyrido[2′,3′:5,6][1,3]oxazino[3,4-a]indol-2-yl)-2-(4-fluorophenyl)-N-methylbenzofuran-3-carboxamide], the IC50 (HCV replicon genotype 1a) was 32 nM and the IC50 (HCV replicon genotype 1b) was 7.4 nM.

`CNC(=O)c1c(-c2ccc(F)cc2)oc2cc(C#N)c(-c3ccc4c(n3)-c3cc5c(F)cccc5n3CO4)cc12` [Compound 180, 6-cyano-5-(11-fluoro-6H-pyrido[2′,3′:5,6][1,3]oxazino[3,4-a]indol-2-yl)-2-(4-fluorophenyl)-N-methylbenzofuran-3-carboxamide] was tested, and the IC50 (HCV replicon genotype 1a) was 3 nM and the IC50 (HCV replicon genotype 1b) was 5.3 nM.

With `CNC(=O)c1c(-c2ccc(F)cc2)oc2cc(CN)c(-c3ccc4c(n3)-c3cc5c(F)cccc5n3CO4)cc12` [Compound 181] the IC50 (HCV replicon genotype 1a) was 13 nM and the IC50 (HCV replicon genotype 1b) was 14 nM.

`CNC(=O)c1c(-c2ccc(F)cc2)oc2cc(C(=O)OC)c(-c3ccc4c(n3)-c3cc5c(F)cccc5n3CO4)cc12` [Compound 182] was tested, and the IC50 (HCV replicon genotype 1a) was 24 nM and the IC50 (HCV replicon genotype 1b) was 23 nM.

Work on `CNC(=O)c1c(-c2ccc(F)cc2)oc2cc(C(N)=O)c(-c3ccc4c(n3)-c3cc5c(F)cccc5n3CO4)cc12` [Compound 183, 5-(11-fluoro-6H-pyrido[2′,3′:5,6][1,3]oxazino[3,4-a]indol-2-yl)-2-(4-fluorophenyl)-N3-methylbenzofuran-3,6-dicarboxamide] yielded an IC50 (HCV replicon genotype 1a) of 2 nM and an IC50 (HCV replicon genotype 1b) of 7.1 nM.

With `CNC(=O)c1c(-c2ccc(F)cc2)oc2cc(N(CC(F)F)S(C)(=O)=O)c(-c3ccc4c(n3)-c3cc5c(F)cccc5n3CO4)cc12` [Compound 184, 6-(N-(2,2-difluoroethyl)methylsulfonamido)-5-(11-fluoro-6H-pyrido[2′,3′:5,6][1,3]oxazino[3,4-a]indol-2-yl)-2-(4-fluorophenyl)-N-methylbenzofuran-3-carboxamide] the IC50 (HCV replicon genotype 1a) was 8.4 nM and the IC50 (HCV replicon genotype 1b) was 6.5 nM.

With `CNC(=O)c1c(-c2ccc(F)cc2)oc2cc(N(CC(F)F)S(C)(=O)=O)c(-c3ccc4c(n3)-c3cc5ccccc5n3CO4)cc12` [Compound 185] the IC50 (HCV replicon genotype 1a) was 7.9 nM and the IC50 (HCV replicon genotype 1b) was 16 nM.

`CNC(=O)c1c(-c2ccc(F)cc2)oc2cc(N(CC(F)F)S(C)(=O)=O)c(-c3ncc4c(n3)-c3cc5c(F)cccc5n3CO4)cc12` [Compound 186] was tested, and the IC50 (HCV replicon genotype 1a) was 4.4 nM and the IC50 (HCV replicon genotype 1b) was 7.6 nM.

Work on `CNC(=O)c1c(-c2ccc(F)cc2)oc2cc(N(CCCF)S(C)(=O)=O)c(-c3ccc4c(n3)-c3cc5ccccc5n3CO4)cc12` [Compound 187] yielded an IC50 (HCV replicon genotype 1a) of 7.5 nM and an IC50 (HCV replicon genotype 1b) of 9.4 nM.

Work on `CNC(=O)c1c(-c2ccc(F)cc2)oc2cc(N(CC(F)F)S(C)(=O)=O)c(-c3ccc4c(n3)-c3cc5c(C#N)cccc5n3CO4)cc12` [Compound 188] yielded an IC50 (HCV replicon genotype 1a) of 3.8 nM and an IC50 (HCV replicon genotype 1b) of 3.7 nM.

`CNC(=O)c1c(-c2ccc(F)cc2)oc2cc(N(CCF)S(C)(=O)=O)c(-c3ccc4c(n3)-c3cc5ccccc5n3CO4)cc12` [Compound 189] showed an IC50 (HCV replicon genotype 1a) of 2.9 nM and an IC50 (HCV replicon genotype 1b) of 4.4 nM.
